Laboratory results reported in patent US10624948B2, “Use of cell-permeable peptide inhibitors of the JNK signal transduction pathway for the treatment of various diseases” (Xigen Inflammation Ltd., priority 2013, dated 2020).
Where two headings read alike, the source gives them in different places.

How the values were obtained:
[1] = system: Sprague-Dawley albino rats, light-induced photoreceptor cell death; assay type: in vivo
Protocol: The aim of this study was to investigate the dose effect of XG-102 on light-induced photoreceptor cell death.
Test item (XG-102: 30 mg/ml, 3 mg/ml, and 0.3 mg/ml) and vehicle (0.9% NaCl) were administered by intravitreal injection in right eyes the day before induction. The reference (Phenyl-N-test-Butylnitrone (PBN) (50 mg/kg)) and vehicle were intraperitoneally injected 30 min before induction then, 3 times during 12 hours of light exposition, then once after induction. Animals were placed in constant light (7000 lux) for 24 h. Electroretinograms (ERG) were recorded before light treatment and on days 9, 16 and 23 after induction. Eyes were then taken for histology and outer nuclear layer (ONL) thickness assessment. The table below summarizes the allocation of animals in treatment groups:
For the intravitreal injection animals were anesthetized by intramuscular injection of a mixture of xylazine/ketamine. Test item (5 μl) and vehicle (5 μl) were injected in the right eye. The injection was performed under an operating microscope in the supratemporal area at pars plana using a 33G-needle mounted on a 50 μl Hamilton. The filled syringe was mounted into the UltraMicroPump III to achieve accurate injection in microliter range. Reference and vehicle were injected intraperitoneally at a dose volume of 2.5 ml/kg using a 30G-needle mounted on a 1 ml-syringe.
Light Exposure: The rats that had been dark-adapted overnight were exposed for 24 hours to a continuous white fluorescent light (7000 lx) in clear plastic cages. Each cage contained one rat. After exposure, the rats returned to rearing cyclic light conditions.
ERG was recorded before induction and 7, 14 and 21 days after cessation of exposure (Days 9, 16 and 23) on right eyes of dark-adapted and anesthezied animals. The latency times (for a- and b-wave) and the a-wave and b-wave amplitudes were measured for each ERG; the latency times were expressed as millisecond and the a-wave and b-wave as a percentage of the baseline value obtained before light exposure. 15 min before measurement 10 μl Mydriaticum® (0.5% tropicamide) were instilled for pupillary dilatation.
Measurement of the ONL Thickness: After ERG testing, animal was euthanized by an overdose of pentobarbital and the right eyes were enucleated, fixed and embedded in paraffin. Sections (5 μm thick) were performed along the vertical meridian and stained with Trichrome-Masson. The vertical meridian included the optic nerve.

[2] = system: HCT 116 human colon tumor; test: Orthotopic HCT 116 human colon tumors in SCID mice; assay type: in vivo
Protocol: The objective of this study was to determine the effect of XG-102 on the growth of HCT 116 human colon tumor orthotopically xenografted in SCID mice.
For XG-102 administration the required amount of XG-102 was dissolved in the vehicle. The formulation was prepared according to the procedure detailed below. Concentrations were calculated and expressed taking into account test item purity and peptide content (multiplier coefficient was 74.6%). […] Diluted solutions were maintained on ice until use. Unused material was discarded. XG-102 was injected once daily at 0.1 and 1 mg/kg/inj. for a total of fourteen consecutive administrations (Q1D×14). The routes of substance administrations were: injected subcutaneously (SC) at 5 ml/kg/inj., administered per os (PO) to mice by oral gavage via a canula at 5 ml/kg/adm. The injection and administration volumes were adapted, according to the daily individual body weight of mice.
Twenty four to Forty-eight hours before tumor induction, 5 SCID mice were irradiated with a γ-source (1.8 Gy, Co^60, INRA, Dijon, France). Ten millions (10^7) HCT 116 cells suspended in 200 μl of RPMI medium were subcutaneously injected in the right flank of the 5 female SCJD mice. When tumors reached 1000-2000 mm^3, mice were sacrificed. […]
Mice were sacrificed at D26. […] Invasion of liver by tumor nodules was evaluated macroscopically. […]

CC(C)C[C@@H](NC(=O)[C@@H](Cc1ccccc1)NC(=O)[C@H]1CCCN1C(=O)[C@@H](CCC(N)=O)NC(=O)[C@H](NC(=O)[C@H]1CCCN1C(=O)[C@@H](CCCNC(=N)N)NC(=O)[C@@H](CO)NC(=O)[C@@H](CCC(N)=O)NC(=O)[C@H](N)CC(=O)O)C(C)C)C(=O)N[C@H](CC(N)=O)C(=O)N[C@H](CC(C)C)C(=O)N[C@@H](C(=O)N[C@@H](C(=O)N1CCC[C@@H]1C(=O)N[C@H](CCCNC(=N)N)C(=O)N[C@H](CCCCN)C(=O)N1CCC[C@@H]1C(=O)N[C@H](CCCNC(=N)N)C(=O)N1CCC[C@@H]1C(=O)N1CCC[C@@H]1C(=O)N[C@H](CCCNC(=N)N)C(=O)N[C@H](CCCNC(=N)N)C(=O)N[C@H](CCCNC(=N)N)C(=O)N[C@H](CCC(N)=O)C(=O)N[C@H](CCCNC(=N)N)C(=O)N[C@H](CCCNC(=N)N)C(=O)N[C@H](CCCCN)C(=O)N[C@H](CCCCN)C(=O)N[C@H](CCCNC(=N)N)C(=O)NCC(=O)O)[C@H](C)O)[C@H](C)O [XG-102]
ERG A-wave amplitude, percent of the baseline, Mean ± SD ([1]; XG-102 ivt 15 μg/eye, Day 23): 41.8 ± 23.6% | ERG B-wave amplitude, percent of the baseline, Mean ± SD ([1]; XG-102 ivt 15 μg/eye, Day 23): 56.5 ± 29.8% | ERG A-wave amplitude, percent of the baseline, Mean ± SD ([1]; XG-102 ivt 150 μg/eye, Day 9): 23.6 ± 25.3% | ERG B-wave amplitude, percent of the baseline, Mean ± SD ([1]; XG-102 ivt 150 μg/eye, Day 9): 31.9 ± 42.6% | ERG A-wave amplitude, percent of the baseline, Mean ± SD ([1]; XG-102 ivt 150 μg/eye, Day 16): 24.1 ± 28.1% | ERG B-wave amplitude, percent of the baseline, Mean ± SD ([1]; XG-102 ivt 150 μg/eye, Day 16): 38.9 ± 51.5% | ERG A-wave amplitude, percent of the baseline, Mean ± SD ([1]; XG-102 ivt 150 μg/eye, Day 23): 23.7 ± 27.2% | ERG B-wave amplitude, percent of the baseline, Mean ± SD ([1]; XG-102 ivt 150 μg/eye, Day 23): 37.1 ± 54.4% | MBWC at D−2 ([2]; PO 0.1 mg/kg/adm.): 7.1±4.6% | lethality after surgery vs vehicle treated group ([2]; mouse, in vivo): did not significantly modify lethality compared to vehicle treated group
